Source: PubChem BioAssay AID1919013 (Molecular Pharmacology Branch, DTP, NCI, 2023)

Tested on: LG0703-F498-PDC complex spheroid growth
Assay: Anticancer human tumor LG0703-F498-PDC patient-derived lung adenocarcinoma cell line growth inhibition [AhR]
Conditions: for IC50: curve of first compound; for viability, T/C: stronger effect = lower value
Outline: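 Spheroids combined tumor cells with HUVEC endothelial cells and human MSCs as stroma. AhR antagonists were paired with standard or investigational drugs, each dosed in half-log steps down from near clinical Cmax, or from 10 microM where Cmax was unknown.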
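Further: luminescence taken as a proxy for viable cell amount.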
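Wherever viability, T/C is given: percent of DMSO vehicle control where 100% means growth equal to vehicle.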

With `O=C(C=Cc1cccc(S(=O)(=O)Nc2ccccc2)c1)NO` + Cc1cncc(-c2nc(NCCc3c[nH]c4ccccc34)c3ncn(C(C)C)c3n2)c1 the IC50 (second compound 0.1 µM) was 619 nM, the IC50 (second compound 0.316 µM) was 657 nM and the IC50 (second compound 1 µM) was 523 nM. For the same compound, the IC50 (second compound 3.16 µM) was 423 nM, the IC50 (second compound 10 µM) was less than 31.6 nM and the viability, T/C (second compound 0.1 µM, first compound 0.0316 µM) was 118%. It also gave a viability, T/C (second compound 0.1 µM, first compound 0.1 µM) of 115%, a viability, T/C (second compound 0.1 µM, first compound 0.316 µM) of 75.8% and a viability, T/C (second compound 0.1 µM, first compound 1 µM) of 30.8%. For the same compound, the viability, T/C (second compound 0.1 µM, first compound 3.16 µM) was 10.1%, the viability, T/C (second compound 0.1 µM, first compound 10 µM) was 1.27% and the viability, T/C (second compound 0.316 µM, first compound 0.0316 µM) was 111%. It also gave a viability, T/C (second compound 0.316 µM, first compound 0.1 µM) of 104%, a viability, T/C (second compound 0.316 µM, first compound 0.316 µM) of 81.1% and a viability, T/C (second compound 0.316 µM, first compound 1 µM) of 32%. For the same compound, the viability, T/C (second compound 0.316 µM, first compound 3.16 µM) was 7.58%, the viability, T/C (second compound 0.316 µM, first compound 10 µM) was 1.48% and the viability, T/C (second compound 1 µM, first compound 0.0316 µM) was 106%. It also gave a viability, T/C (second compound 1 µM, first compound 0.1 µM) of 108%, a viability, T/C (second compound 1 µM, first compound 0.316 µM) of 69.3% and a viability, T/C (second compound 1 µM, first compound 1 µM) of 23.6%. The viability, T/C (second compound 1 µM, first compound 3.16 µM) was 6.31%, the viability, T/C (second compound 1 µM, first compound 10 µM) was 0.83% and the viability, T/C (second compound 3.16 µM, first compound 0.0316 µM) was 59.9%. For the same compound, the viability, T/C (second compound 3.16 µM, first compound 0.1 µM) was 71.5%, the viability, T/C (second compound 3.16 µM, first compound 0.316 µM) was 57.8% and the viability, T/C (second compound 3.16 µM, first compound 1 µM) was 25%. The viability, T/C (second compound 3.16 µM, first compound 3.16 µM) was 6.63%, the viability, T/C (second compound 3.16 µM, first compound 10 µM) was 1.68% and the viability, T/C (second compound 10 µM, first compound 0.0316 µM) was 1.93%. For the same compound, the viability, T/C (second compound 10 µM, first compound 0.1 µM) was 2.88%, the viability, T/C (second compound 10 µM, first compound 0.316 µM) was 4.14% and the viability, T/C (second compound 10 µM, first compound 1 µM) was 8.01%. It also gave a viability, T/C (second compound 10 µM, first compound 3.16 µM) of 9.58% and a viability, T/C (second compound 10 µM, first compound 10 µM) of 1.55%.
